{
  "source": "patent US11278514B2",
  "about": "“Composition compromising dunnione as effective ingredient for prevention or alleviation of hair loss” (NADIANBIO LTD., priority 2018, dated 2022)",
  "key": {"[1]": {"tested_on": "C57BL/6 mice having alopecia caused by cyclophosphamide", "assay": "Visual observation of skin in animal model having alopecia caused by cyclophosphamide", "format": "in vivo", "text": "In 9-week-old C57BL/6 mice, the hair on the dorsal skin area was first removed with an animal hair clipper, and then a depilatory ([…] cream, manufactured by Ildong Pharmaceutical Co., Ltd.) was applied to the dorsal skin to completely remove the hair."}, "Sirt1": {"tested_on": "Sirt1", "assay": "Sirt1 activity in skin tissue (fluorescent Sirt1 detection kit), cyclophosphamide alopecia model", "format": "in vivo, mice", "conditions": "cyclophosphamide plus dunnione combination-treated group; day 18", "method": "In addition, the skin tissue obtained from the animal model prepared by the method in Example 2 was homogenized. The homogenized skin tissue was tested with the fluorescent Sirt1 detection kit (BML-AK555-0001) of Enzo Life Sciences International, Inc. according to the instruction manual, and then Sirt1 activity was analyzed. 40 μg of the homogenized skin tissue was mixed with a reaction solution (Fluor de Lys-Sirt1, NAD+, buffer solution (25 mM Tris-HCl (pH8.0), 137 mM NaCl, 2.7 mM […], 1 mM MgCl2, and 1 mg/mL BSA)), and reaction was allowed to proceed at a temperature of 37° C. for 1 hour. Then, additional reaction was allowed to proceed for 5 minutes under a condition in which a developer is added. In order to check the final Sirt1 activity, readings were measured for the reaction solution using the CytoFluor series 4000 fluorometer (PerSeptive Biosystems, Inc., USA) with the excitation wavelength set to 360 nm and the emission to 460 nm."}, "[2]": {"tested_on": "C57BL/6 mice having alopecia caused by docetaxel, adriamycin, and cyclophosphamide", "assay": "Visual observation of skin in animal model having alopecia caused by 6×TAC", "format": "in vivo", "text": "In 9-week-old C57BL/6 mice, the hair on the dorsal skin area was first removed with an animal hair clipper, and then a depilatory (Niclean cream, manufactured by Ildong Pharmaceutical Co., Ltd.) was applied to the dorsal skin to completely remove the hair.\nDocetaxel (DTX), adriamycin (ADR), and cyclophosphamide (CYP) were used as anticancer drugs, and combined administration of the three anticancer drugs was designated as TAC. In addition, information was obtained from the National Comprehensive Cancer Network (NCCN) for the single concentration (designated as 1× concentration) of each anticancer drug which is actually clinically applied to cancer patients. As described below, for the experimental group to be treated with anti-cancer drugs, the mice were treated with docetaxel, adriamycin, and cyclophosphamide at 6× concentration (11.58 mg/kg, 9.24 mg/kg, and 76.8 mg/kg, respectively). When treatment with the anticancer drugs is performed, the anticancer drugs were injected intraperitoneally at time intervals of 1 hour so that each of the anticancer drugs can be sufficiently absorbed."}, "NQO1 knockout mice": {"tested_on": "NQO1 knockout mice", "assay": "Visual observation of skin in NQO1 knockout mice treated with 6×TAC", "format": "in vivo", "description": "In order to identify whether a hair loss inhibitory effect of dunnione in an animal model having combined chemotherapy-induced alopecia is dependent on the enzyme NQO1, the same experiments as described in Examples 1 and 2 were repeatedly performed using NQO1 knockout mice in place of the C57BL/6 mice."}},
  "note": "“Also recorded” adds a separate entry of the source.",
  "data": [
    {"smiles": "CC1OC2=C(C(=O)C(=O)c3ccccc32)C1(C)C", "note": "(stereo not drawn) [dunnione, 2,3-dihydro-2,3,3-trimethyl-naphtho[1,2-b]furan-4,5-dione]", "values": [
      {"measurement": "hair growth, visual observation of skin", "setting": "[1]; CYP+Dunnione combination-treated group, day 18 after hair removal", "result": "hair grew overall so that the skin is full of hair and looks black"},
      {"measurement": "hair growth, visual observation of skin", "setting": "[1]; CYP+Dunnione: cyclophosphamide 150 mg/kg i.p. day 9, dunnione oral daily from 3 days prior, day 14 after hair removal", "result": "began to grow more hair than the cyclophosphamide alone-treated group"},
      {"measurement": "hair loss", "setting": "[1]; cyclophosphamide plus dunnione combination-treated group compared with cyclophosphamide alone-treated group", "result": "inhibited hair loss"},
      {"measurement": "hair growth, visual observation of skin", "setting": "[1]; dunnione alone (20 mg/kg), day 18 after hair removal", "result": "hair grew overall so that the skin is full of hair and looks black"},
      {"measurement": "Sirt1 activity in skin tissue", "setting": "Sirt1", "result": "maintained at a level similar to the normal group"},
      {"measurement": "hair growth, visual observation of skin", "setting": "[2]; 6×TAC+Dunnione combination-treated group, day 18", "result": "hair grew overall so that the skin is full of hair and looks black"},
      {"measurement": "hair growth, visual observation of skin", "setting": "[2]; 6×TAC+Dunnione: 6×TAC i.p. day 9, dunnione oral daily from 3 days prior, day 14", "result": "began to grow more hair than the 6×TAC alone-treated group"},
      {"measurement": "hair loss", "setting": "[2]; TAC plus dunnione combination-treated group compared with TAC alone-treated group", "result": "inhibited hair loss"},
      {"measurement": "hair growth, visual observation of skin", "setting": "[2]; dunnione alone, day 18", "result": "hair grew overall so that the skin is full of hair and looks black"},
      {"measurement": "hair growth, visual observation of skin", "setting": "NQO1 knockout mice; 6×TAC+Dunnione combination-treated group, until day 18", "result": "hair hardly grows until day 18 after hair removal; also recorded: progression of hair loss to a level similar to the TAC alone-treated group"},
      {"measurement": "start of hair growth, visual observation of skin", "setting": "NQO1 knockout mice; dunnione alone (20 mg/kg)", "result": "hair began to grow starting from day 12 after hair removal"},
      {"measurement": "hair growth, visual observation of skin", "setting": "NQO1 knockout mice; dunnione alone (20 mg/kg), day 18", "result": "hair grew overall on day 18 so that the skin is full of hair and looks black"}
    ]}
  ]
}
